For one series, the system named is complex I. Conditions: metabolite of MPTP; cited from earlier work.
Series [1] relates to NADH cytochrome C reductase. As to conditions: certain brain areas; causing Parkinsonian-like symptoms; cited from earlier work.
The nature of series [2]: Physical performance on the treadmill or bicycle ergometer, soccer players. Type of series: in vivo, human. As to conditions: 5-mg tablet NADH daily, one month. Here is the method:
A study similar to that of Example 3 was performed with a European soccer team. […] This increased energy production was confirmed by improved physical performance on the treadmill or bicycle ergometer.

Series [3] concerns NADH cytochrome C reductase. Nature of the series: NADH cytochrome C reductase assay of whole blood, competitive cyclists before and after oral NADH. Type of series: in vivo, human. As for the experimental part: (§1) Enzyme Preparation A 1-mL portion of a whole blood sample obtained from a subject by venipuncture is preserved by addition of a suitable preserving agent such as that provided by a citrate solution. To a 100-μL sample of this citrate blood is added 900 μL of phosphate balanced salt solution (PBS) at pH =7.8. The resulting 1-mL portion of buffer-diluted citrate blood is sonified with an apparatus such as that available from BRANSON at a duty cycle of 40%, output position 3. Sonification is repeated a total of ten times for 10 seconds each. An additional 1-mL volume of PBS is added to the sonified solution. The PBS-diluted solution represents the enzyme preparation utilized for further assay.
(§2) Substrate preparation A 10-mg sample of cytochrome C, obtainable from conventional sources such as Sigma Chemical, St. Louis is dissolved in 9.6 mL of distilled water. To this is added add 200 μL of 0.1 M NaN3 (sodium azide) and 200 μL of PBS (pH 7.8).
(§3) Performance of the enzyme assay A 900-μL volume of cytochrome C solution (reaction substrate) is pipetted into a 1-mL (PMMA) cuvette. The sample is mixed and allowed to incubate for 15 minutes at 37°. A 100-μL volume of enzyme preparation is added to the sample cuvette and mixed thoroughly. The absorption of reduced cytochrome C at 550 nm is measured exactly 60 seconds after addition of the enzyme preparation to the cuvette. The absorption of cytochrome C at 550 nm is again measured after 5 minutes of incubation at 37° C. after the first measurement. […]
(§4) Determination of enzymatic activity The specific activity of the enzyme species is expressed as nanomoles (nmol) of cytochrome C reduced per μL blood per 5 minutes. For quantitative analyses, a calibration curve with 0, 30, 50, 100, 130 nmol reduced cytochrome C concentrations is prepared. For calculation of the enzymatic activity expressed per blood cell, the number of red blood cells, white blood cells and IS platelets are determined. The cell counts of these cells can be determined from the undiluted citrate blood according to standard procedures. […]

Series [4] can be described thus: Lactate blood levels after maximum performance. Type of series: in vivo, human. Here is the method:
(§5) The performance quality, reaction speed and constancy of attention also was tested in these athletes. The performance quality was assessed by the accuracy with which a task was done, i.e., generally in terms of the number of correct identifications of stimuli. Methods used for determination of performance quality were measurement of the continuous attention, vigilance, and the cognitrone program of the Vienna Test system (Dr. Schuhfried Ges.m.b.H., Austria). For examination of the physical performance, a bicycle ergometer (Oxycon-Alpha, Jager Inc., Vienna, Austria) was used. […] The volume and the intensity of the training and exercise program of the athletes was kept constant over that period. […] Data reflecting this is presented below in Tables 2-4.

Series [5] in a line: Physical performance by spiro-ergometry (bicycle ergometer). Type of series: in vivo, human. As to conditions: 4 weeks. As for the experimental part: as §5
The nature of series [6]: Performance quality: continuous attention, vigilance, cognitrone (Vienna Test system). Also on record: Continuous attention: DRT (mean value), after NADH / Cognitrone: DRT (mean), after NADH / Vigilance: correct reactions, after NADH / Vigilance: DRT (mean), after NADH: unit not given here. Type of series: in vivo, human. As for the experimental part: The performance quality, reaction speed and constancy of attention also was tested in these athletes. The performance quality was assessed by the accuracy with which a task was done, i.e., generally in terms of the number of correct identifications of stimuli. Methods used for determination of performance quality were measurement of the continuous attention, vigilance, and the cognitrone program of the Vienna Test system (Dr. Schuhfried Ges.m.b.H., Austria). For examination of the physical performance, a bicycle ergometer (Oxycon-Alpha, Jager Inc., Vienna, Austria) was used. […] The volume and the intensity of the training and exercise program of the athletes was kept constant over that period.

The test system of series [7] is NADH cytochrome C reductase. Nature of the series: NADH cytochrome C reductase assay of whole blood, soccer players before and after oral NADH. Also on record: key to Enzyme Activity after NADH intake: nmol cytochrome C reduced per µL blood per 5 min. Type of series: in vivo, human. As for the experimental part: as §1, §2, §3, §4
The subject of series [8] is NADH cytochrome C reductase. Nature of the series: NADH cytochrome C reductase assay, rats before and after oral NADH. Also on record: Enzyme Activity after NADH intake: unit not given here. Type of series: in vivo. Here is the method: as §1, §2, §3
Determination of enzymatic activity The specific activity of the enzyme species is expressed as nanomoles (nmol) of cytochrome C reduced per μL blood per 5 minutes. For quantitative analyses, a calibration curve with 0, 30, 50, 100, 130 nmol reduced cytochrome C concentrations is prepared. For calculation of the enzymatic activity expressed per blood cell, the number of red blood cells, white blood cells and IS platelets are determined. The cell counts of these cells can be determined from the undiluted citrate blood according to standard procedures.

[9] abbreviates: after 4 weeks of one 5-mg tablet NADH per day (n = 17).
Where [10] appears, read: after vs before 4 weeks of one 5-mg tablet NADH per day (n = 17).
Where [11] appears, read: after NADH, 1 tablet NADH (5 mg) per day.
Where [12] appears, read: 4 weeks after intake of one 5-mg tablet NADH per day, n = 17.
Where [13] appears, read: 4 weeks of one 5-mg tablet NADH per day vs before, n = 17.
The mark [14] stands for this setting: soccer players, per subject, one 5-mg tablet NADH daily for one month.
Setting [15] is: rats, per animal, one 2.5-mg tablet NADH daily for three months.

Structures are written as SMILES. Where “and” joins values, the source holds several entries; their conditions need not be identical. Equal entries are not always repeated.

Consider `C[n+]1ccc(-c2ccccc2)cc1` [MPP^+, 1-methyl-4-phenyl-pyridine], for which the “effect on complex I in the ETC” value with complex I is “inhibits”.
Regarding `CN1CC=C(c2ccccc2)CC1` [MPTP, 1-methyl-4-phenyl-1,2,3,6-tetrahydropyridine], the “effect on NADH cytochrome C reductase” value in series [1] was “irreversibly inhibits and destroys”.
As for `NC(=O)C1=CN([C@@H]2O[C@H](COP(=O)(O)OP(=O)(O)OC[C@H]3O[C@@H](n4cnc5c(N)ncnc54)[C@H](O)[C@@H]3O)[C@@H](O)[C@H]2O)C=CC1` [NADH, reduced form of nicotinamide adenine dinucleotide], the “physical performance on the treadmill or bicycle ergometer” value in series [2] was “improved”. In [3] (competitive cyclists, per subject, one 5-mg tablet NADH daily for one month), the “% Difference in enzyme activity (after vs before NADH intake)” value (“% Difference in enzyme activity” below) is 50.00% (4×) and 57.10% and 46.70% (2×) and 76.90% and 47.10% (3×) and 64.30% and 60.00% and 61.50% and 53.30% and 58.30% and 41.20%. In addition, the “Enzyme Activity after NADH intake” value in series [3] (competitive cyclists, per subject, one 5-mg tablet NADH daily for one month, activity expressed as nmol cytochrome C reduced per μL blood per 5 minutes) is 2.1 (2×) and 2.2 (3×) and 2.3 (3×) and 2.4 (4×) and 2.5 (3×) and 2.7 and 1.9. In addition, the “endogenous NADH cytochrome C reductase activity” value in [3] (in nineteen of the twenty athletes, 5-mg tablet daily, one month) is listed as “increase”. For the same molecule, in [4] (setting [9]), the “Lactate Level 1 min. after maximum performance, after NADH, mean” value is 9.0 and the “Lactate Level 3 min. after maximum performance, after NADH, mean” value is 7.4. Also, in [4] (setting [10]), the “Lactate Level 1 min. after maximum performance, Differences in percent, Dmax” value came to 22.2%; the “Lactate Level 1 min. after maximum performance, Differences in percent, Dmean” value is given as 10.0%; the “Lactate Level 1 min. after maximum performance, Differences in percent, Dmed” value was found to be 9.6%; the “Lactate Level 1 min. after maximum performance, Differences in percent, Dmin” value is recorded as −7.3%. Moreover, in [4] (setting [10]), the “Lactate Level 3 min. after maximum performance, Differences in percent, Dmax” value was determined as 70.3%; the “Lactate Level 3 min. after maximum performance, Differences in percent, Dmean” value was found to be 17.2%; the “Lactate Level 3 min. after maximum performance, Differences in percent, Dmed” value is on record as −3.7%; the “Lactate Level 3 min. after maximum performance, Differences in percent, Dmin” value is given as −22.5%. In series [5] (setting [11]), the “Hfmax, mean” value was determined as 180.00; the “Rmax, mean” value worked out at 1.00; the “VO2Max, mean” value is 4.98; the “VO2Max/kg, mean” value stood at 71.20. Moreover, in [5] (setting [11]), the “Vmax, mean” value worked out at 163.00; the “Wmax (maximum performance), mean” value was 340.00; the “Wmax/kg, mean” value is 4.90. In series [5] (the nineteen athletes with increased enzyme activity, 5 mg NADH daily), the physical performance result is “improved”. In [6] (setting [12]), the “Cognitrone: Correct reactions, after NADH” value is reported as 190.10; the “Cognitrone: DRT (mean), after NADH” value was 2.09; the “Continuous attention: DRT (mean value), after NADH” value is 0.81; the “Continuous attention: Dispersion, after NADH” value stood at 0.17. In series [6] (setting [12]), the “Continuous attention: correct reactions, after NADH” value was 118.80; the “Continuous attention: missed reactions, after NADH” value is listed as 1.24; the “Vigilance: DRT (mean), after NADH” value is reported as 0.55; the “Vigilance: Dispersion, after NADH” value stood at 0.11. Further, in series [6] (setting [12]), the “Vigilance: correct reactions, after NADH” value worked out at 97.88 and the “Vigilance: incorrect reactions, after NADH” value is recorded as 1.24. Besides, in series [6] (setting [13]), the “Cognitrone: Correct reactions, % alteration per person” value was determined as 2.98%; the “Cognitrone: DRT (mean), % alteration per person” value is −16.05%; the “Cognitrone: working time (min), % alteration per person” value is recorded as −14.36%; the “Continuous attention: DRT (mean value), % alteration per person” value was −6.48%. Also, in series [6] (setting [13]), the “Continuous attention: Dispersion, % alteration per person” value is reported as −11.59%; the “Continuous attention: correct reactions, % alteration per person” value came to 1.42%; the “Continuous attention: incorrect reactions, absolute alteration per person” value was −1.12; the “Continuous attention: missed reactions, absolute alteration per person” value was −1.41. Moreover, in series [6] (setting [13]), the “Vigilance: DRT (mean), % alteration per person” value came out at 7.79%; the “Vigilance: Dispersion, % alteration per person” value worked out at 4.79%; the “Vigilance: correct reactions, % alteration per person” value was found to be 0.01%; the “Vigilance: incorrect reactions, absolute alteration per person” value is given as −0.65. The “Vigilance: missed reactions, absolute alteration per person” value in series [6] (setting [13]) turned out to be 0.24. Further, in [6] (the nineteen athletes with increased enzyme activity, 5 mg NADH daily, 4 weeks), the mental performance result is recorded as “improved”. Further, in series [7] (fifteen soccer players, 5-mg tablet daily, one month), the “endogenous NADH cytochrome C reductase activity” value is on record as “increase”. For the same molecule, in [7] (setting [14]), the “% Difference in enzyme activity” value is 20.00% (4×) and 8.30% and −8.30% and 0.00% (2×) and 33.00% and 16.00% and 7.10% (2×) and 162% and 75% and 6.60%; the “Enzyme Activity after NADH intake” value is 1.2 and 1.3 (2×) and 1.6 (5×) and 1.4 (2×) and 1.1 and 1.5 (2×) and 2.1 (2×). The enzymatic activity result in series [8] (all test animals (rats), 2.5-mg tablet daily, three months) is listed as “increase”. Besides, in series [8] (setting [15]), the “% Difference in enzyme activity” value is 17.1% and 13.5% (2×) and 11.4% and 7.5% and 13.8% (2×) and 20.0% and 9.6% and 12.5%; the “Enzyme Activity after NADH intake” value is 0.41 (3×) and 0.42 (2×) and 0.39 and 0.43 (2×) and 0.45 (2×).

The record behind these values is patent publication US6383771B1, “Enzyme-based assay for determining effects of exogenous and endogenous factors on cellular energy” (Birkmayer Pharmaceuticals, priority 1997, dated 2002).
